Measured values from patent US12551463B2, “Dosing of a Bruton's tyrosine kinase inhibitor” (Loxo Oncology, Inc., priority 2019, dated 2026).

What was measured:
[1] = Human clinical trials of BTK-I: adverse events in the overall safety population of 323 patients; type: in vivo
Description: (Mato A., et al., “Toxicities and Outcomes of 616 Ibrutinib-Treated Patients in the United States: A Real-World Analysis”, Haematologica, 2018, 103(5), 874-879.) Between Mar. 21, 2019 and Sep. 27, 2020, across 7 dose levels ranging from 25 mg once daily (QD) to 300 mg QD in 323 patients, the only treatment-emergent adverse events regardless of attribution or grade seen in ≥10% of patients (n=323) were fatigue (n=65, 20%), diarrhea (n=55, 17%), and contusion (n=42, 13%). In 121 efficacy-evaluable cBTKi-treated chronic lymphocytic leukemia (CLL) patients (median prior lines=4), overall response rate (ORR) was 62% (95% CI: 53-71), rising to 84% in patients followed for ≥10 months.
Atrial arrythmias and hemorrhage are two important AEs associated with covalent BTK inhibitor discontinuation. […] Only 1 patient experienced a grade 3 hemorrhage, a subarachnoid bleed sustained during a bicycle accident. In total, 18 patients had discontinued a prior BTK inhibitor for cardiovascular toxicity (in 15) or hemorrhage (3). None experienced recurrence of these events on BTK-I.

CLL/SLL = assay: Phase 1/2 clinical study, CLL/SLL patients; type: in vivo, human
Description: (§1) The study is an open-label, multi-center study of oral BTK-I to evaluate safety and efficacy as monotherapy and as part of combination therapy in patients with CLL/SLL and NHL who have failed or are intolerant to standard of care. This study includes monotherapy as well as combination treatment parts. The monotherapy part includes Phase 1 dose escalation and dose expansion as well as Phase 2. The combination therapy part is a Phase 1b (safety assessment and expansion) of BTK-I in combination with venetoclax, with or without anti-CD20 therapy. Phase 1 dose escalation will proceed prior to start of Phase 1b or Phase 2. Once a recommended Phase 2 dose (RP2D) is identified in Phase 1, enrollment can commence to the Phase 1b combination therapies and Phase 2 monotherapy cohorts.
(§2) The primary objectives of the Phase 1 Dose Escalation and Expansion part of the study is to determine the maximum tolerated dose (MTD)/RP2D of oral BTK-I in patients with previously treated CLL/SLL and B-cell NHL.
(§3) Patients are enrolled with histologically confirmed CLL/SLL or B-cell NHL who have failed or are intolerant to at least two prior standard of care regimens given in combination or sequentially or have received at least one prior BTK inhibitor-containing regimen when BTK inhibitor is approved in first line.
(§4) BTK-I is administered in oral tablet form. Dose escalation will follow a 3+3 design starting with a 25 mg QD dose (followed by 50 mg QD (dose level cohort 2), 100 mg QD (dose level cohort 3), 150 mg QD (dose level cohort 4), 200 mg QD (dose level cohort 5), 250 mg QD (dose level cohort 6), and 300 mg QD (dose level cohort 7)). Cycle length will be 28 days. The drug limiting toxicity (DLT) period will be 28 days, commencing with the first dose of BTK-I.
(§5) The primary objective of the Phase 2 is to assess the primary anti-tumor activity of BTK-I based on overall response rate (ORR) and as assessed by the Independent Review Committee.
(§6) At the RP2D up to ˜600 patients with CLL/SLL or NHL will be enrolled to one of the following cohorts: • Cohort 1: Non-blastoid MCL patients treated with a prior BTK-inhibitor. • Cohort 2: CLL/SLL patients treated with 2 or more prior regimens, including a BTK inhibitor-containing regimen. • Cohort 3: CLL/SLL patients with no prior therapy. • Cohort 4: CLL/SLL patients treated with prior therapy, BTK inhibitor naive. • Cohort 5: WM patients treated with a prior BTK inhibitor containing regimen. • Cohort 6: MZL patients treated with a prior BTK inhibitor containing regimen. • Cohort 7: (Not otherwise specified) defined as CLL/SLL or NHL not otherwise specified in Cohorts 1 through 6, inclusive of CLL/SLL or NHL, Richter's transformation, blastoid MCL, and patients with history of CNS involvement or primary CNS lymphoma.
(§7) Dosing during Phase 2 will be at the RP2D of 200 mg QD. The cycle length will be 28 days. BTK-I will be administered to the Phase 2 patients in oral tablet form at the RP2D. The dose (and schedule) chosen for Phase 2 may be changed by the SRC based on emerging data (e.g., PK, safety, and/or efficacy) as long as the new dose is not greater than the highest dose that has a DLT <33% and is determined to be safe by the SRC in Phase 1. If the RP2D is changed based on emerging data, patients enrolled to Phase 2 at a different dose may have the dose changed to the new dose.

MCL = assay: Phase 1/2 clinical study, mantle cell lymphoma patients; type: in vivo, human
Description: as §1, §2, §3, §4, §5, §6, §7

MZL = assay: Phase 1/2 clinical study, MZL patients; type: in vivo, human
Description: as §1, with “cohorts. […]” for “cohorts.”
The primary objective of the Phase 2 is to assess the primary anti-tumor activity of BTK-I based on overall response rate (ORR) and as assessed by the Independent Review Committee. […]
Dosing during Phase 2 will be at the RP2D of 200 mg QD. […] The dose (and schedule) chosen for Phase 2 may be changed by the SRC based on emerging data (e.g., PK, safety, and/or efficacy) as long as the new dose is not greater than the highest dose that has a DLT <33% and is determined to be safe by the SRC in Phase 1. […]

[2] = 25 mg QD to 300 mg QD, n=323, regardless of attribution or grade

COc1ccc(F)cc1C(=O)NCc1ccc(-c2nn([C@@H](C)C(F)(F)F)c(N)c2C(N)=O)cc1 [BTK-I, (S)-5-amino-3-(4-((5-fluoro-2-methoxybenzamido)methyl)phenyl)-1-(1,1,1-trifluoropropane-2-yl)-1H-pyrazole-4-carboxamide]
treatment-emergent adverse event contusion, patients [1, 2]: 13%
treatment-emergent adverse event diarrhea, patients [1, 2]: 17%
treatment-emergent adverse event fatigue, patients [1, 2]: 20%
recurrence of cardiovascular toxicity or hemorrhage on BTK-I ([1]; 18 patients who had discontinued a prior BTK inhibitor for cardiovascular toxicity (15) or hemorrhage (3)): None
permanent discontinuations for drug-related adverse events, patients ([1]; n=323 (in 5)): 1.5%
dose reductions for drug-related adverse events, patients ([1]; n=323 (in 7)): 2.2%
dose interruptions for drug-related adverse events, patients ([1]; n=323 (in 26)): 8.0%
atrial fibrillation/flutter, patients ([1]; overall safety population of 323 patients, 2 patients, both grade 2, considered unrelated): 0.6%
grade 3 hemorrhage ([1]; overall safety population of 323 patients, subarachnoid bleed during a bicycle accident): 1 patient
ORR (CLL/SLL; 28 patients with 17p deletion, TP53 mutation, or both): 79%
ORR (CLL/SLL; 121 BTK-pretreated patients, CI: 53-71%): 62%
ORR (CLL/SLL; 139 efficacy-evaluable CLL/SLL patients, all dose levels, 95% CI: 55-71): 63%
patients remaining on BTK-I (CLL/SLL; all CLL/SLL patients): 88%
ORR (CLL/SLL; at ≥10 months (25/29)): 86%
ORR (CLL/SLL; discontinued covalent BTK inhibitor for progression [53/79]): 67%
ORR (CLL/SLL; discontinued covalent BTK inhibitor for toxicity or another reason [22/42]): 52%
ORR (CLL/SLL; followed for at least 8 months (35/49)): 71%
BTK C481 mutant allele fraction from peripheral blood mononuclear cells (CLL/SLL; majority of responding patients): decreased over time
responding patients no longer on therapy (CLL/SLL; of 88 responders (4 progressed, 1 electively discontinued)): 5
non-evaluable (NE), patients (CLL/SLL; of 139, discontinued prior to first response assessment): 5
PR-L, patients (CLL/SLL; of 139 efficacy-evaluable): 19
partial response (PR), patients (CLL/SLL; of 139 efficacy-evaluable): 69
progressive disease (PD), patients (CLL/SLL; of 139 efficacy-evaluable): 1
stable disease (SD), patients (CLL/SLL; of 139 efficacy-evaluable): 45
ORR (CLL/SLL; progression on prior covalent BTK inhibitor, with BTK C481 mutation [15/20]): 75%
ORR (CLL/SLL; progression on prior covalent BTK inhibitor, without BTK C481 mutation [18/30]): 60%
ORR (MCL; 52 patients with prior covalent BTK inhibitor, 95% CI: 38-66): 52%
ORR (MCL; 56 efficacy-evaluable MCL patients, 95% CI: 38-65): 52%
median time to first response (MCL; MCL): 1.8 months
patients remaining on BTK-I (MCL; all MCL patients): 57%
responding patients who discontinued treatment (MCL; of 29 responders (4 PD, 1 in CR)): 5
CR, patients (MCL; of 56 efficacy-evaluable): 14
NE, patients (MCL; of 56 efficacy-evaluable): 5
PD, patients (MCL; of 56 efficacy-evaluable): 12
PR, patients (MCL; of 56 efficacy-evaluable): 15
responses (MCL; patients with blastoid variant MCL): 2 of 4
responses (MCL; patients with prior CAR-T): 2 of 2
responses (MCL; prior autologous or allogeneic transplant (9/14)): 64%
responses/patients (MZL): 2/9
